Experimental data reported in patent US10829520B2, “Beta-hairpin peptidomimetics” (POLYPHOR AG, priority 2015, dated 2020).
Where two headings read alike, the source gives them in different places. *1 amine or outer side, *2 acyl side, *3 side chain or, on linkers, in order; H or OH if unused. Where a SMILES comes first, the peptide text is derived from it. Bridges are numbered along the chain shown (N, C = ends). Roman numbers before positions name the chains, in order. [ ]: non-standard residue; d: D form. Ala(cPent) = N[C@@H](CC1CCCC1)C(=O)O; Hyp = O=C(O)[C@@H]1C[C@@H](O)CN1; X3 = CNCC[C@H](N[*:1])C(=O)[*:2]; Tle = CC(C)(C)[C@H](N)C(=O)O; dDab = NCC[C@@H](N)C(=O)O; hCys = N[C@@H](CCS)C(=O)O; Nle = CCCC[C@H](N)C(=O)O; Orn = NCCC[C@H](N)C(=O)O; Dab = NCC[C@H](N)C(=O)O; Dap = NC[C@H](N)C(=O)O

How the values were obtained:
Format in all cases: cell-based
[1] = system: Acinetobacter baumannii 872842
Protocol: (§1) Lyophilized peptides were weighed on a Microbalance (Mettler MT5) and dissolved in sterile water to a final concentration of 1 mg/mL. Stock solutions were kept at +4° C., light protected.
(§2) The in vitro antimicrobial activities of the peptides were determined in 96-well plates (Greiner, polystyrene) by the standard CLSI broth microdilution method (Clinical and Laboratory Standards Institute 2014. Performance standards for antimicrobial susceptibility testing, 24th informational supplement. Approved standard CLSI M100-S24; Clinical and Laboratory Standards Institute, Wayne, Pa.). Inocula of the microorganisms were diluted into Mueller-Hinton II (MH-cation adjusted) broth and compared with a 0.5 McFarland standard to give appr. 10^6 colony forming units (CFU)/mL. Aliquots (90 μL) of inoculate were added to 10 μL of MH-II broth+P-80 (Polysorbate 80, 0.002% final concentration, v/v) containing the peptide in serial two-fold dilutions. The following microorganisms were used to determine antibiotic activity of the peptides: Escherichia coli ATCC 25922, Klebsiella pneumoniae SSI #3010^a), Acinetobacter baumannii DSM 30008, Pseudomonas aeruginosa ATCC 27853 and the clinical isolates Escherichia coli 926415^b), Klebsiella pneumoniae 968733^b) and Acinetobacter baumannii 872842^b). Antimicrobial activities of the peptides were expressed as the minimal inhibitory concentration (MIC) in μg/mL at which no visible growth was observed after 18-20 hours of incubation at 35° C. ^a) Obtained from Statens Serum Institut (SSI), Copenhagen, Denmark^b) Obtained from International Health Management Associates, Inc. (IHMA Europe Sàrl), Epalinges, Switzerland

[2] = system: Pseudomonas aeruginosa ATCC 27853; conditions: ATCC 27853
Protocol: as §1, §2

[3] = system: Escherichia coli 926415
Protocol: as §1, §2

[4] = system: Klebsiella pneumoniae 968733
Protocol: as §1, §2

[5] = system: Klebsiella pneumoniae SSI #3010; conditions: SSI #3010
Protocol: as §1, §2

[6] = system: Acinetobacter baumannii DSM 30008; conditions: DSM 30008
Protocol: as §1, §2

[7] = system: human red blood cells (hRBC); assay: Hemolysis of human red blood cells; conditions: red cells of human, 1 h
Protocol: as §1
The peptides were tested for their hemolytic activity against human red blood cells (hRBC). Fresh hRBC were washed three times with phosphate buffered saline (PBS) and centrifuged for 10 min at 2000×g. Compounds (100 μg/mL) were incubated with 20% hRBC (v/v) for 1 h at 37° C. and shaking at 300 rpm. The final erythrocyte concentration was approximately 0.9×10^9 cells/mL. A value of 0% and 100% cell lyses, respectively, was determined by incubation of hRBC in the presence of PBS containing 0.001% acetic acid and 2.5% Triton X-100 in H2O, respectively. The samples were centrifuged, the supernatants were 8-fold diluted in PBS buffer and the optical densities (OD) were measured at 540 nm. The 100% lyses value (OD540H2O) gave an OD540 of approximately 0.5-1.0.
Percent hemolysis was calculated as follows: (OD540peptide/OD540H2O)×100%.

[8] = system: Escherichia coli ATCC 25922; conditions: ATCC 25922
Protocol: as §1, §2

[9] = clinical isolate, Mueller-Hinton II broth, P-80 0.002% present
[10] = clinical isolate, Mueller-Hinton II broth, measured in absence of P-80

Row | Molecule | Acinetobacter baumannii 872842 MIC [1]; 872842 | Pseudomonas aeruginosa ATCC 27853 MIC [2] | Escherichia coli 926415 MIC [3]; 926415 | Klebsiella pneumoniae 968733 MIC [4]; 968733 | Klebsiella pneumoniae SSI #3010 MIC [5] | Acinetobacter baumannii DSM 30008 MIC [6] | Hemolysis at 100 μg/mL ([7]; 100 μg/mL) | Escherichia coli ATCC 25922 MIC [8] | Acinetobacter baumannii 872842 MIC [1, 9] | Acinetobacter baumannii 872842 MIC [1, 10] | Escherichia coli 926415 MIC [3, 9] | Escherichia coli 926415 MIC [3, 10] | Klebsiella pneumoniae 968733 MIC [4, 9] | Klebsiella pneumoniae 968733 MIC [4, 10] | Hemolysis at 100 μg/mL [7]; 100
1 | CCCC[C@@H]1NC(=O)[C@@H]2CCCN2C(=O)[C@H]2CCCN2C(=O)[C@H]([C@@H](C)O)NC(=O)[C@H](CN)NC(=O)[C@H](C(C)(C)C)NC(=O)[C@@H](NC(=O)[C@H](Cc2c[nH]c3ccccc23)NC(C)=O)CSSC[C@@H](C(=O)N[C@@H](CCN)C(=O)N[C@H](C(=O)N[C@@H](CCN)C(=O)N[C@H]2CCNC(=O)[C@H]([C@@H](C)O)NC(=O)[C@H](CCN)NC(=O)[C@H](CCN)NC(=O)[C@H](CC(C)C)NC(=O)[C@@H](Cc3ccccc3)NC(=O)[C@H](CCN)NC2=O)[C@@H](C)O)NC(=O)[C@H](Cc2ccc(O)cc2)NC(=O)CNC1=O [Ex. 19] (Ac-WC[Tle][Dap]T[dP]P[Nle]GYC[Dab]T[Dab][Dab][Dab][dF]L[Dab][Dab]T; disulfide 2-11; lactam 15-C) | 0.75 µg/mL | 1 µg/mL | 0.25 µg/mL | 0.75 µg/mL | 1 µg/mL | 0.25 µg/mL | <1% | – | – | – | – | – | – | – | –
2 | CCCC[C@@H]1NC(=O)[C@@H]2CCCN2C(=O)[C@H]2CCCN2C(=O)[C@H](CO)NC(=O)[C@H](C)NC(=O)[C@H](C(C)C)NC(=O)[C@@H](NC(=O)[C@H](Cc2c[nH]c3ccccc23)NC(C)=O)CSSC[C@@H](C(=O)N[C@@H](CCCN)C(=O)N[C@@H](CCN)C(=O)N[C@H]2CCNC(=O)[C@H]([C@@H](C)O)NC(=O)[C@H](CCN)NC(=O)[C@H](CCN)NC(=O)[C@H](CC(C)C)NC(=O)[C@@H](Cc3ccccc3)NC(=O)[C@H](CCN)NC2=O)NC(=O)[C@H](Cc2ccc(O)cc2)NC(=O)[C@H](CO)NC1=O [Ex. 55] (Ac-WCVAS[dP]P[Nle]SYC[Orn][Dab][Dab][Dab][dF]L[Dab][Dab]T; disulfide 2-11; lactam 14-C) | – | 2 µg/mL | – | – | 1 µg/mL | 1 µg/mL | 1% | 0.5 µg/mL | – | – | – | – | – | – | –
3 | colistin [reference compound] | – | – | – | – | – | – | – | – | >8 µg/mL | 64 µg/mL | 8 µg/mL | 16 µg/mL | >8 µg/mL | 16 µg/mL | –
4 | CC(C)C[C@@H]1NC(=O)[C@@H](CC(C)C)NC(=O)[C@H](CCN)NC(=O)[C@@H](NC(=O)[C@H](CCN)NC(=O)[C@@H](NC(=O)[C@H](CCN)NC(=O)CNC(=O)[C@H](CCN)NC(=O)[C@H](Cc2ccc(O)cc2)NC(=O)[C@@H]2CSSC[C@H](NC(=O)[C@@H](NC(=O)[C@H](CCN)NC(=O)[C@@H](N)Cc3c[nH]c4ccccc34)C(C)C)C(=O)N[C@@H](CO)C(=O)N[C@H](C)C(=O)N3C[C@H](O)C[C@H]3C(=O)N[C@@H](CC(C)C)C(=O)N2)[C@@H](C)O)CCNC(=O)[C@H]([C@@H](C)O)NC(=O)[C@H](CCN)NC(=O)[C@H](CCN)NC1=O [Ex. 164] (H-W[Dab]VCS[dA][Hyp]LCY[Dab]G[Dab]T[Dab][Dab][Dab][dL]L[Dab][Dab]T; disulfide 4-9; lactam 16-C) | – | 0.5 µg/mL | – | – | 0.5 µg/mL | 0.25 µg/mL | <1% | 0.0625 µg/mL | – | – | – | – | – | – | –
5 | CC(C)C[C@@H]1NC(=O)[C@H](CCCNC(=N)N)NC(=O)[C@@H](CCN)NC(=O)[C@H](C(C)C)NC(=O)[C@H](C)NC(=O)[C@H](Cc2ccc(O)cc2)NC(=O)[C@H](CCN)NC(=O)[C@H](Cc2c[nH]c3ccccc23)NC(=O)[C@H](CCN)NC(=O)[C@@H](CCN)NC(=O)[C@H](CCC(=O)N[C@@H](CCN)C(=O)N[C@H](C(=O)N[C@@H](CCN)C(=O)N[C@H]2CCNC(=O)[C@H]([C@@H](C)O)NC(=O)[C@H](CCN)NC(=O)[C@H](CCN)NC(=O)[C@H](CC(C)C)NC(=O)[C@@H](CC(C)C)NC(=O)[C@H](CCN)NC2=O)[C@@H](C)O)NC(=O)[C@H](CCN)NC(=O)[C@H](Cc2ccc(O)cc2)NC(=O)[C@H](CO)NC1=O [Ex. 97] (I: cyclo(AV[dDab]RLSY[Dab]E[dDab][Dab]W[Dab]Y) / II: [Dab]T[Dab][Dab][Dab][dL]L[Dab][Dab]T; amide I:9-II:N; lactam II:4-II:C) | – | 0.5 µg/mL | – | – | 0.5 µg/mL | 2 µg/mL | – | 0.5 µg/mL | – | – | – | – | – | – | 1%
6 | CCCC[C@@H]1NC(=O)[C@@H]2CCCN2C(=O)[C@H]2CCCN2C(=O)[C@H](CO)NC(=O)[C@H](C)NC(=O)[C@H](C(C)(C)C)NC(=O)[C@H](CCN)NC(=O)[C@H](Cc2c[nH]c3ccccc23)NC(=O)[C@H](CCN)NC(=O)[C@@H](CCN)NC(=O)[C@H](CCC(=O)N[C@@H](CCNC)C(=O)N[C@H]2CCNC(=O)[C@H]([C@@H](C)O)NC(=O)[C@H](CCN)NC(=O)[C@H](CCN)NC(=O)[C@H](CC(C)C)NC(=O)[C@@H](Cc3ccccc3)NC(=O)[C@H](CCN)NC2=O)NC(=O)[C@H](CCN)NC(=O)[C@H](Cc2ccc(O)cc2)NC(=O)[C@H](CO)NC1=O [Ex. 68] (I: cyclo(W[Dab][Tle]AS[dP]P[Nle]SY[Dab]E[dDab][Dab]) / II: [X3][Dab][Dab][dF]L[Dab][Dab]T; amide I:12-II:N; lactam II:2-II:C) | – | 0.5 µg/mL | – | – | 2 µg/mL | 2 µg/mL | – | 2 µg/mL | – | – | – | – | – | – | <1%
7 | CC(C)C[C@@H]1NC(=O)[C@@H](CC(C)C)NC(=O)[C@H](CCN)NC(=O)[C@@H](NC(=O)[C@H](CCN)NC(=O)[C@@H](NC(=O)[C@H](CCN)NC(=O)CNC(=O)[C@@H]2CCSSC[C@H](NC(=O)[C@@H](N)Cc3c[nH]c4ccccc34)C(=O)N[C@@H](C(C)C)C(=O)N[C@@H](C)C(=O)N[C@@H](CO)C(=O)N3CCC[C@@H]3C(=O)N3CCC[C@H]3C(=O)N[C@@H](CC(C)C)C(=O)N[C@@H](CO)C(=O)N[C@@H](Cc3ccc(O)cc3)C(=O)N2)[C@@H](C)O)CCNC(=O)[C@H]([C@@H](C)O)NC(=O)[C@H](CCN)NC(=O)[C@H](CCN)NC1=O [Ex. 134] (H-WCVAS[dP]PLSY[hCys]G[Dab]T[Dab][Dab][Dab][dL]L[Dab][Dab]T; disulfide 2-11; lactam 16-C) | – | 1 µg/mL | – | – | 0.25 µg/mL | 0.125 µg/mL | <1% | 0.125 µg/mL | – | – | – | – | – | – | –
8 | CC(C)C[C@@H]1NC(=O)[C@@H](Cc2ccccc2)NC(=O)[C@H](CCN)NC(=O)[C@@H](NC(=O)[C@H](CCN)NC(=O)[C@H](CCCN)NC(=O)[C@@H]2CSSC[C@H](NC(=O)[C@H](Cc3c[nH]c4ccccc34)NC(=O)CN)C(=O)N[C@@H](C(C)(C)C)C(=O)N[C@@H](C)C(=O)N[C@@H](CO)C(=O)N3CCC[C@@H]3C(=O)N3CCC[C@H]3C(=O)N[C@@H](CC3CCCC3)C(=O)N[C@@H](CO)C(=O)N[C@@H](Cc3ccc(O)cc3)C(=O)N2)CCNC(=O)[C@H]([C@@H](C)O)NC(=O)[C@H](CCN)NC(=O)[C@H](CCN)NC1=O [Ex. 183] (H-GWC[Tle]AS[dP]P[Ala(cPent)]SYC[Orn][Dab][Dab][Dab][dF]L[Dab][Dab]T; disulfide 3-12; lactam 15-C) | – | 0.5 µg/mL | – | – | 0.125 µg/mL | 0.25 µg/mL | 2% | 0.125 µg/mL | – | – | – | – | – | – | –
